US10729130B2, “Nematicidal compositions and methods of using them” (Eden Research plc, priority 2004, dated 2020)
One block for each compound: values may come before it.

What was measured:
[1] = Loading of terpenes (L-carvone) into SAF Mannan in minimal water (free terpene, flow); format: physicochemical; parameters: key to Free Terpene: +: “free terpene” refers to the visible presence of terpene in the centrifuged reaction mixture; −: The absence of free terpene indicates complete absorption of the terpene by the particles; key to Flow: Sl = slight; details: emulsion 4.64 g; for Flow: flow in inverted tubes over 15 minutes
Experimental: The following protocol was carried out to evaluate the possibility that terpene loading and encapsulation into YP could be carried out at a very high Yeast Particles (YP) solids level to allow for direct extrusion of the loaded formulation into a fluidised bed drier. The minimal amount of water to completely hydrate the SAF Mannan™ particles was determined to be 3.53 g water per g solids. This defines the hydrodynamic volume (HV) or water absorptive capacity of the particles. At this level of water the hydrated particles have a consistency of a stiff dough which is thixotropic, i.e. shear thinning like mayonnaise. Addition of water up to 40% above the HV results in a thick flowable paste. The standard reaction that has been used in the above examples was carried out at 3×HV water.
. Controls were the standard loading system which uses 3×HV water, particles only and terpene only reactions. Following overnight incubation samples of the mixtures were evaluated microscopically for free terpene and evidence of terpene uptake into the particles and for material flow characteristics by assessing flow in inverted tubes over 15 minutes. In addition, the presence of free oil was assessed by hydrating the reaction mixture with 5×HV, vortexing to obtain a complete dispersion of particles and centrifugation to sediment the particle encapsulated terpene. FIGS. 7 to 12 show the loading results of the following tubes: • FIG. 7—Tube 3 • FIG. 8—Tube 5 • FIG. 9—Tube 6 • FIG. 10—Tube 8 • FIG. 11—Tube 10 • FIG. 12—Tube 11

[2] = Xanthan gum as interstitial hydrocolloid: dispersion of dried encapsulated L-carvone particles when re-hydrated; format: physicochemical; details: dispersion on re-hydration, SAF 1 g, L-carvone emulsion 1.1 g
Experimental: The following protocol was adopted to evaluate the effect of an interstitial hydrocolloid to increase dried hollow glucan particle encapsulated terpene formulations to disperse when hydrated. • SAF Mannan™ particles • 0.1% Tween 80 • L-carvone • Xanthan Gum—1% w/v in 0.1% Tween 80
The effect of increasing xanthan gum levels on dry hollow glucan particle encapsulated L-carvone dispersion in water was assessed by loading L-carvone into SAF Mannan by incubating 1.1 g of an L-carvone emulsion (L-carvone:water:surfactant ratio of 0.75:0.3:0.05) with 1 g SAF Mannan and 4.4 g 0.1% Tween 80 containing 0-1% xanthan gum as shown in Table 32.

root-knot nematodes = experiment: Effect of pH on the nematicidal activity of citral (fresh and one-day old solutions); format: in vivo, root-knot nematode
Experimental: Test solutions of these three concentrations were prepared at different pHs by adjusting the pH with HCl or NaOH to pH 4, 7 and 10.
One batch of test solutions was used immediately and another was left for 24 hours before use. The method of administration to the nematodes and counting the kill rate is the same as for previous protocols.
The results are shown below in Tables 11 and 12.

Citrus nematodes = experiment: Nematicidal effects of citral in soil, Citrus nematodes; format: in vivo, citrus nematode
Experimental: Methodology: Nematodes used for the analysis originated from commercial agricultural crop soils. Species of nematode included root-knot and citrus. Prior to commencement of each study the nematodes were counted and evaluated for viability. In each experiment soil samples were infected with only one species of nematode. Three measured quantities of soil (250 g) were placed into large PVC plastic containers.
Soil moisture was assessed by weighing a soil sample and then drying the sample in a drying oven. Soil moisture content was confirmed using a “Hydroscout” instrument. In all cases the moisture content measured by both methods was within the resolution of the instruments. By determining the water content of the soil it was possible to calculate the volume of terpene solution which would be diluted when mixed with the soil.
These dilutions were by volume not the more commonly used mass ratios. The reason for using volume dilutions was simply one of convenience enabling the use of a micropipette or cylinder to measure the terpene. The mass ratio of the ‘in soil’ and ‘in water’ solution could be simply calculated by multiplying the ppm of terpene by it's density (0.92 g/ml).
The terpene solution was added to each test tube containing a weighed sample of nematode infected soil. The terpene solution and soil were mixed by inverting the test tube several times. The test tubes containing the soil and terpene solution were left to stand in racks in the laboratory for 48 hours-72 hours depending on the survival of the untreated nematodes. In each experiment a control group was treated with distilled water. The % mortality (kill) rates in the treatment groups was compared with the control population.
The nematodes were extracted by “Sieving & mist extraction” (Ayoub, S. M. 1977) prior to being counted.
Criteria for Evaluation: Nematode counts were performed to determine the proportion of nematodes which survived and were killed in each treatment group.
The results are shown below on Table 17 to 19.

- Free Terpene ([1]; Tube 1: terpene only control, no SAF, water 4.5 g): +
- Free Terpene ([1]; Tube 3: SAF 1 g, water 4.5 g (standard loading, 3×HV)): −
- Free Terpene ([1]; Tube 4: SAF 1 g, water —): −
- Free Terpene ([1]; Tube 5: SAF 1 g, water 0.17 g): −
- Free Terpene ([1]; Tube 6: SAF 1 g, water 0.35 g): −
- Free Terpene ([1]; Tube 7: SAF 1 g, water 0.52 g): −
- Free Terpene ([1]; Tube 8: SAF 1 g, water 0.7 g): −
- Free Terpene ([1]; Tube 9: SAF 1 g, water 0.87 g): −
- Free Terpene ([1]; Tube 10: SAF 1 g, water 1.05 g): −
- Free Terpene ([1]; Tube 11: SAF 1 g, water 1.39 g): −
- Flow ([1]; Tube 7: SAF 1 g, water 0.52 g): Sl
- Flow ([1]; Tube 8: SAF 1 g, water 0.7 g): Mod
- Flow ([1]; Tube 9: SAF 1 g, water 0.87 g): High
- Flow ([1]; Tube 10: SAF 1 g, water 1.05 g): High
- Flow ([1]; Tube 11: SAF 1 g, water 1.39 g): High
- Visual Observations ([2]; 0.1% Tween-80 0 g, 1% xanthan 4.4 g): Finer Uniform
- Visual Observations ([2]; 0.1% Tween-80 2.2 g, 1% xanthan 2.2 g): Finer Uniform
- Visual Observations ([2]; 0.1% Tween-80 3.3 g, 1% xanthan 1.1 g): Finer Uniform
- Visual Observations ([2]; 0.1% Tween-80 3.85 g, 1% xanthan 0.55 g): Uniform
- Visual Observations ([2]; 0.1% Tween-80 4.12 g, 1% xanthan 0.28 g): Uniform
- Visual Observations ([2]; 0.1% Tween-80 4.26 g, 1% xanthan 0.14 g): Uniform
- Visual Observations ([2]; 0.1% Tween-80 4.33 g, 1% xanthan 0.07 g): Uniform
- Visual Observations ([2]; 0.1% Tween-80 4.4 g, 1% xanthan 0 g): Large non-
Compound: L-carvone

Compound: CC(C)=CCCC(C)=CC=O [Citral, citral]
- % nematodes dead (root-knot nematodes; fresh citral, 62.5 ppm, pH 4, 24 h): 48%
- % nematodes dead (root-knot nematodes; fresh citral, 62.5 ppm, pH 4, 48 h): 50%
- % nematodes dead (root-knot nematodes; fresh citral, 62.5 ppm, pH 7, 24 h): 39%
- % nematodes dead (root-knot nematodes; fresh citral, 62.5 ppm, pH 7, 48 h): 44%
- % nematodes dead (root-knot nematodes; fresh citral, 62.5 ppm, pH 10, 24 h): 32%
- % nematodes dead (root-knot nematodes; fresh citral, 62.5 ppm, pH 10, 48 h): 45%
- % nematodes dead (root-knot nematodes; fresh citral, 125 ppm, pH 4, 24 h): 31%
- % nematodes dead (root-knot nematodes; fresh citral, 125 ppm, pH 4, 48 h): 50%
- % nematodes dead (root-knot nematodes; fresh citral, 125 ppm, pH 7, 24 h): 44%
- % nematodes dead (root-knot nematodes; fresh citral, 125 ppm, pH 7, 48 h): 47%
- % nematodes dead (root-knot nematodes; fresh citral, 125 ppm, pH 10, 24 h): 39%
- % nematodes dead (root-knot nematodes; fresh citral, 125 ppm, pH 10, 48 h): 39%
- % nematodes dead (root-knot nematodes; fresh citral, 250 ppm, pH 4, 24 h): 75%
- % nematodes dead (root-knot nematodes; fresh citral, 250 ppm, pH 4, 48 h): 73%
- % nematodes dead (root-knot nematodes; fresh citral, 250 ppm, pH 7, 24 h): 73%
- % nematodes dead (root-knot nematodes; fresh citral, 250 ppm, pH 7, 48 h): 72%
- % nematodes dead (root-knot nematodes; fresh citral, 250 ppm, pH 10, 24 h): 83%
- % nematodes dead (root-knot nematodes; fresh citral, 250 ppm, pH 10, 48 h): 87%
- % nematodes dead (root-knot nematodes; one-day old citral, 62.5 ppm, pH 4, 24 h): 40%
- % nematodes dead (root-knot nematodes; one-day old citral, 62.5 ppm, pH 4, 48 h): 27%
- % nematodes dead (root-knot nematodes; one-day old citral, 62.5 ppm, pH 7, 24 h): 30%
- % nematodes dead (root-knot nematodes; one-day old citral, 62.5 ppm, pH 7, 48 h): 27%
- % nematodes dead (root-knot nematodes; one-day old citral, 62.5 ppm, pH 10, 24 h): 16%
- % nematodes dead (root-knot nematodes; one-day old citral, 62.5 ppm, pH 10, 48 h): 21%
- % nematodes dead (root-knot nematodes; one-day old citral, 125 ppm, pH 4, 24 h): 27%
- % nematodes dead (root-knot nematodes; one-day old citral, 125 ppm, pH 4, 48 h): 31%
- % nematodes dead (root-knot nematodes; one-day old citral, 125 ppm, pH 7, 24 h): 25%
- % nematodes dead (root-knot nematodes; one-day old citral, 125 ppm, pH 7, 48 h): 33%
- % nematodes dead (root-knot nematodes; one-day old citral, 125 ppm, pH 10, 24 h): 25%
- % nematodes dead (root-knot nematodes; one-day old citral, 125 ppm, pH 10, 48 h): 32%
- % nematodes dead (root-knot nematodes; one-day old citral, 250 ppm, pH 4, 24 h): 90%
- % nematodes dead (root-knot nematodes; one-day old citral, 250 ppm, pH 4, 48 h): 90%
- % nematodes dead (root-knot nematodes; one-day old citral, 250 ppm, pH 7, 24 h): 40%
- % nematodes dead (root-knot nematodes; one-day old citral, 250 ppm, pH 7, 48 h): 33%
- % nematodes dead (root-knot nematodes; one-day old citral, 250 ppm, pH 10, 24 h): 47%
- % nematodes dead (root-knot nematodes; one-day old citral, 250 ppm, pH 10, 48 h): 52%
- Mean % killed (Citrus nematodes; first experiment (Table 16), 62.5 ppm, 8 replicates): −2.84%
- Mean % killed (Citrus nematodes; first experiment (Table 16), 125 ppm, 8 replicates): 46.29%
- Mean % killed (Citrus nematodes; first experiment (Table 16), 250 ppm, 8 replicates): 91.66%
- Mean % killed (Citrus nematodes; first experiment (Table 16), 500 ppm, 8 replicates): 95.53%
- Mean % killed (Citrus nematodes; repeated protocol (Table 19), 500 ppm, N 10): 99.9%
